The source of these data is a melting point compilation (Tetko et al.; mined from patent text by program, amines drawn as free bases though some values may be those of a salt).

In the case of `Cn1cc(C(=O)NCc2ccc(Cl)cc2)c(=O)c2cc(CN3CCOCC3)cc(C#CCF)c21`, the melting point (usually the temperature of the solid-liquid transition) was in the range of 189 to 191 °C.
On to `CC1(C)OC(=O)Nc2ccc(-c3cc(F)cc(Cl)c3)cc21`, for which the melting point lay in the range of 193 to 194 °C.
`COc1cc(C(=O)O)ccc1Cc1cn(C)c2ccc(C(=O)NC[C@H](C)CC(F)(F)F)cc12`: the melting point lay within 218 to 223 °C.
Then `CCC(Cc1cc(C(C)(C)C)c(O)c(C(C)(C)C)c1)[N+](=O)[O-]` (centres undefined), with 55 to 60 °C; and `Clc1ccc2c(n1)[nH]c1ccc(Br)cc12`, with over 220 °C.
The same measure for `COC(=O)NCc1cc(C(C)=NOCc2cccc(C)n2)ccc1C`: 72 to 75 °C; for `CCCc1nc(C(=O)OC)c(C(=O)OC)n1Cc1ccc(-c2ccccc2-c2nnn[nH]2)cc1`: 124 to 126 °C; for `Oc1ccnc(Nc2cccc(Cl)c2)n1`: 250 to 252 °C.
Then `Clc1ccccc1Cc1cccc2[nH]ccc12`, with 76 to 77 °C; and `CC(=O)ON=C(N)c1cccc(C(=O)N2CCN(C(=O)[C@@H]3CCCN3S(=O)(=O)c3ccc(Cl)c(COc4cccc5c(C)cc(C)nc45)c3Cl)CC2)c1`, with 130 °C.
Take `COc1ccc(S(=O)(=O)N2CCc3cccc(-c4ccc(C(F)(F)F)cc4)c32)cc1`: the melting point was in the range of 180 to 181 °C.
For the compound `COc1c(OC)c(OC(C)=O)c2cc(Cl)ccc2c1O`, the melting point was in the range of 106 to 107 °C.
Consider `COC(=O)c1ccc(COc2ccc3cc(-c4ccc(-c5ccccc5)n4-c4ccccc4)ccc3c2)cc1`, for which the melting point lay in the range of 218 to 219 °C.
Then `CCNC(=O)Nc1nc2cc(OCc3ccccc3)cc(Br)c2s1`, with 294 °C; and `O=c1c2c(Cc3ccccc3OC(F)(F)F)n[nH]c2c2cccnc2n1-c1cccc(OC(F)(F)F)c1`, with 233 to 236 °C; and `CN(CCO)c1nccc(Oc2ccc(NC(=O)c3cc(F)cc(N4CCOCC4)c3)c3ccccc23)n1`, with 100 to 102 °C.
The same measure for `O=C(O)CCCCCCCCCCc1ccc(F)cc1F`: 56 °C; for `O=S(=O)(Nc1ccc2c(OCc3cccc(-c4ccc(F)cc4)n3)cccc2c1)C(F)(F)F`: 173 to 174 °C; for `CC(=O)OC1CSC(Oc2cncc(-c3ccc(C#N)nc3)c2)C(OC(C)=O)C1OC(C)=O` (centres undefined): 142 to 151 °C.
In the case of `CN1C(=O)[C@@H](NC(=O)C(C)(C)C)N=C(c2ccccc2)c2ccccc21`, the melting point fell in the range of 85 to 94 °C.
`CC(=O)Nc1cc(F)ccc1C`: the melting point lay in the range of 127 to 128 °C.
The same measure for `O=C1NC[C@H]2CCC[C@H]2O1` (relative stereo): 56 to 58 °C.
The same measure for `COc1c(Cl)cc2c(N)nc(N3CCN(C(=O)C4CCCO4)CC3)nc2c1OC` (centres undefined): 192 to 193 °C; for `C#CCON=Cc1cc(Cl)ccc1OC(=O)NC`: 97 to 100 °C; for `CCCCCCC(C(C)O)n1cnc(C#N)c1N` (centres undefined): 110 to 111 °C.
On to `CC12CCC(C1)C(C)(C)C2(S)CCO` (centres undefined), for which the melting point was in the range of 55 to 60 °C.
Then `O=S(=O)(Nc1ccc2c(OCc3csc(-c4ccc(OC(F)(F)F)cc4)n3)cccc2c1)C(F)(F)F`, with 131 to 132 °C; and `COc1c(N2CCC(O)C(CC(C)C)C2)c(F)cc2c(=O)c(C(=O)O)cn(C3CC3)c12` (centres undefined), with 190 to 192 °C; and `Cn1c(COc2ccc(CC3SC(=O)NC3=O)cc2)nc2ccc(Oc3ccc(NC(=S)NCc4ccccc4)cc3)cc21` (centres undefined), with 175 to 177 °C.
The same measure for `CC(C)(C)OC(=O)NC(C(=O)O)C1(O)CCOCC1` (centres undefined): 140 to 141 °C; for `CCCc1nc2c(N)nc3ccccc3c2n1CC(C)(C)OCCS(C)(=O)=O`: 203 to 206 °C.
`C=CCCc1sc(C#N)c2c1C(=O)CC(C)(C)C2` came in with a melting point of 43 to 46 °C.
Then `CC(=O)NCCc1cccc2ccc(O)cc12`, with 125 to 126 °C; and `CC(=O)c1ccc2c(c1)C(C)c1cc(C(C)=O)ccc1-2`, with 128 to 129 °C.
The same measure for `COC(=O)COc1cccc2c1c(C(=O)C(N)=O)c(C)n2Cc1ccccc1`: 202 to 215 °C; for `Cc1cc(C(=O)O)c(C)c2c1SCCC2(C)C`: 166 to 167 °C; for `CC(=O)N(O)C(C)c1ccc2c(c1)oc1ccccc12` (centres undefined): 132 to 135 °C.
For the compound `Cc1noc(NS(=O)(=O)c2ccccc2-c2ccc(-c3ncco3)cc2CNC(C)C(F)(F)F)c1C` (centres undefined), the melting point fell in the range of 60 to 70 °C.
For the compound `CCC(C)(C)c1cc(-c2cc(F)cc(C=C3SC(N4CCOCC4)=NC3=O)c2)ccc1O`, the melting point was 210 to 212 °C.
Then `Cc1ccc(-c2cn(C)cc(-c3ccccc3)c2=O)cc1`, with 144 °C.
Compound `O=C(NCCSCc1ccccc1)c1ccccc1` yielded a melting point of 65 to 67 °C.
With `N#CCc1ccc(CCOc2ccc(CC3SC(=N)NC3=O)cc2)nc1` (centres undefined), the melting point was 211 to 212 °C.
Then `CCCOc1c(OC)c(OC)cc(C)c1C(=O)c1c(Cl)cccc1Cl`, with 143 °C.
Compound `CN(C)CC=NC(=O)c1cnn2c(-c3cccnc3)ccnc12` gave a melting point of 124 to 127 °C.
Then `CC(C)(C)NC(=O)c1ccc(C(O)CCCc2cn([Si](C)(C)C)cn2)cc1` (centres undefined), with 141 to 143 °C; and `c1nnnn1C1CN2CCC1CC2` (centres undefined), with 83 to 84 °C.
Take `O=C(Oc1ccccc1)C(=O)Oc1ccccc1`: the melting point was 132 to 135 °C.
Then `COc1ccc(-c2cc(N3CCOCC3)cc(=O)o2)cc1`, with 212 to 213 °C; and `O=C(O)CN1C(=O)OC[C@@H]1c1ccccc1`, with 106 to 108 °C; and `CC(O)c1nn(Cc2ccccc2)c(=O)o1` (centres undefined), with 70 °C.
Then `O=C(O)CCCOc1ccc(C(=O)c2ccc(F)cc2)cc1`, with 109 to 111 °C; and `COC(OC)c1ccc2c(c1)C(C)(C)C(=O)CC2(C)C`, with 91 to 92 °C.
The same measure for `CCN(CC)c1nc2n(n1)Cc1ccccc1-2`: 234 to 236 °C; for `CNc1cn(-c2cncc(F)c2)nc1C1CC1`: 118 to 120 °C; for `COc1cccc(COc2cccc3c2CN(C2CCC(=O)NC2=O)C3=O)c1` (centres undefined): 225 to 227 °C.
As to `O=C1COCCOCC(=O)NCCOCCOCCN1`, the melting point stood at 111 °C.
`Nc1ccc(Oc2ccc(C34CC5CC(C3)CC(c3ccc(Oc6ccc(N)c(O)c6)cc3)(C5)C4)cc2)cc1O` registered a melting point of 166 to 169 °C.
`O=C1Nc2cc(Cl)ccc2Oc2cscc21` returned a melting point of 263 to 265 °C.
The same measure for `COc1ccc(C)c(Nc2c(C#N)cnc3cc(Cl)c([N+](=O)[O-])cc23)c1`: 180 to 182 °C; for `Brc1ccc(SC23CC4CC(CC(C4)C2)C3)cc1`: 121 to 122 °C.
`CC(=O)SCc1ccccc1CCC(=O)Nc1cccc(C(=O)OCCBr)c1` gave a melting point of 85 to 88 °C.
`COc1ccccc1-c1ccn(C(C)C(=O)N(C)C)n1` (centres undefined) showed a melting point of 92 to 94 °C.
The same measure for `O=C(NCc1ccc(Cl)cc1)c1cnc2cc(Cl)ccc2c1O`: 237 to 239 °C; for `COc1cc2nc3c(c(-c4cc(OC)c(O)c(OC)c4)c2cc1OC)C(=O)OC3`: 247 to 248 °C; for `CC(=O)Nc1cc(C(=O)OC2OC(COC(=O)c3ccccc3)C(OC3OC4COC(c5ccncc5)OC4C(O)C3O)C(O)C2O)ccc1Cl` (centres undefined): 260 to 262 °C.
Regarding `CC(C)(C)OC(=O)/C=C/c1cc2ncc(C#N)c(Cl)c2s1`, the melting point lay in the range of 193 to 194 °C.
Then `NC(=O)N1C(=O)C(=C(OC(=O)c2cccnc2)c2cccs2)c2cc(F)c(Cl)cc21`, with 201 to 202 °C; and `CNC(=O)c1cc2c(nc(C)n2C)c2c1CCC(c1ccccc1)N2` (centres undefined), with 259 °C; and `CN1CCC(C(=O)Nc2ccc(CN(C)C3CCOCC3)cc2)=Cc2cc(-c3ccc(OC(F)(F)F)cc3)ccc21`, with 182 to 183 °C.
As for `COc1cc(CC(C)=O)ccc1OCCCN1CCC(c2noc3cc(F)ccc23)CC1`, the melting point was in the range of 118 to 119 °C.
Then `COc1cc2c(cc1OC)CCC(C(=O)N1CCN(C(=O)c3cc(OC)c(OC)cc3OC)CC1)=C2`, with 171 to 172 °C.
The same measure for `CC#CC1CCC(C2CCC(c3ccc(CCC)cc3)CC2)CC1` (centres undefined): 70 °C; for `N#CCc1c[nH]c2ccc(N)cc12`: 125 to 130 °C; for `CCN(c1ccc([N+](=O)[O-])cc1Cl)S(=O)(=O)c1ccc(C)cc1`: 118 to 119 °C.
The same measure for `CCC(CC)C(NS(=O)(=O)c1ccc(Cl)s1)c1ccnn1S(=O)(=O)c1ccc(C)cc1` (centres undefined): 146 to 148 °C; for `Cn1nc(N)nc1NCCCOc1cccc(CNCc2ccccc2)c1`: 90 to 91 °C.
On to `CCC(C)(C)c1csc(C(C#N)=C(O)c2c(F)cccc2F)n1`, for which the melting point fell in the range of 195 to 196 °C.
The compound `Cc1c(C)c2c(c(C)c1OCCCc1ccccc1)C(c1ccc(C(C)C)cc1)C(C)(C)O2` (centres undefined) displayed a melting point of 78 to 80 °C.
For `O=[N+]([O-])c1ccc2[nH]cc(C3=CCNCC3F)c2c1` (centres undefined), the melting point fell in the range of 205 to 207 °C.
In the case of `CC1(C)CC(=O)c2c(SCCO)sc(-c3ccccn3)c2C1`, the melting point was in the range of 175 to 177 °C.
The same measure for `CN1CCN(c2ccc3nc(N)c(C#N)c(O)c3c2)CC1`: 156 °C.
In the case of `CNc1nc(-c2ccc(OCc3ccc(Cl)cc3)cc2)cs1`, the melting point fell in the range of 158 to 159 °C.
As to `Cn1cccc1CCNc1nc(-c2cccnc2)nc2ccccc12`, the melting point was in the range of 140 to 142 °C.
The same measure for `CCCN(CC(=O)Nc1cnc(C)nc1N(CC)CC)c1ccccc1`: 96.6 to 98.1 °C.
In the case of `COCCN(C)CC1=Cc2cc(S(N)(=O)=O)sc2S(=O)(=O)N1C`, the melting point was in the range of 127 to 129 °C.
Then `CCc1noc(C)c1-c1[nH]c2ccccc2c1C(O)CCN(C)C` (centres undefined), with 166 to 169 °C; and `O=C(O)CCNC(=O)CCNC(=O)N1CCC2(CCNCC2)CC1`, with 105 to 110 °C.
`CC(C)(C)OC(=O)n1cccc1-c1ccc2c(c1)C(C)(C)C(=O)N2` registered a melting point of 168 to 170 °C.
Turning to `Cc1c(C(F)(F)F)cnn(-c2ccc(Cl)c(C=C(Cl)C(=O)O)c2)c1=O`, the melting point came to 168 °C.
